Experimental data from patent US10071110B2, “Phosphonate compounds” (priority 1999, dated 2018).
pEC50: −log10 of the molar value. Read-outs that look alike come from different tables or passages of the source.

Tests used:
[1] = test system: Human cytomegalovirus (HCMV); assay: HCMV antiviral assay, HCMV DNA quantified by DNA hybridization in MRC-5 cells; assay type: cell-based; settings: for Selectivity Index: CC50/EC50, Human CMV in MRC-5 (Table 2)
HSV-1 = HSV-1 antiviral assay, HSV DNA quantified by nucleic acid hybridization in MRC-5 cells; assay type: cell-based; settings: CC50/EC50 (Table 7)
[2] = test system: patients with steroid-induced osteoporosis; assay: Stimulation of bone formation in humans with steroid-induced osteoporosis; assay type: in vivo, human; settings: oral 0.1 to 100 mg/kg/day, one month to one year, vs placebo
in vitro [3] = settings: human
in vitro [4] = settings: African green monkey
[5] = Cytotoxicity in CEM cells (CC50); assay type: cell-based; settings: human; CEM cells (Table 1)
[6] = test system: MRC-5 human lung fibroblast cells; assay: Cytotoxicity of test compounds in vitro, visual estimate of 50% reduction in cell number; settings: MRC-5 cells
[7] = as above; settings: human, MRC-5 human lung fibroblast cells
HT4-6C cells = assay: Cytotoxicity by the method of Hostetler et al. (HIV study); settings: Table 6
Calvarial cells = assay: Dexamethasone-induced apoptosis in calvarial cells, trypan blue; assay type: cell-based, mice; settings: pretreatment at 10^−8 or greater for 1 hour, then 6 hours 10^−4 dexamethasone
MLO-Y4 osteocytic cells = settings: at 10^−8 to 10^−5 M; 1 hour pretreatment, then 6 hours 10^−4 M dexamethasone
ovariectomized rats = settings: subcutaneous 0 to 8 mg/kg/day, four to twelve weeks, vs ovariectomized controls
HIV-1 = settings: Human immunodeficiency virus 1, 72 h, read-out: EC50, in HIV-1 plaque reduction assay
postmenopausal women = settings: oral 0.1 to 100 mg/kg/day, two to three years, vs placebo

CCCCCCCCCCCCCCCCOP1(=O)COC(Cn2ccc(N)nc2=O)CO1 (stereo not drawn) [Hexadecyl-cCDV, hexadecyl-cCDV]
Selectivity Index [1]: 163

CCCCCCCCCCCCCCCCCCOCCOP1(=O)COC(Cn2ccc(N)nc2=O)CO1 (stereo not drawn) [1-O-octadecylethanediol-2-cCDV]
Selectivity Index [1]: 1 × 10^6
Selectivity Index (HSV-1): 40,000

CCCCCCCCCCCCCCCCOCCCOP(=O)(O)CO[C@H](CO)Cn1ccc(N)nc1=O [HDP-CDV]
Selectivity Index [1]: 5 × 10^6

1-O-octadecyloxypropyl-amino-olpadronate
bone density [2]: bone density is increased
fractures [2]: fractures are decreased

Nc1ccn(C[C@H]2COP(=O)(O)CO2)c(=O)n1 [cCDV, cyclic cidofovir]
CC50 (in vitro [3]): > 100 µM
CC50 (in vitro [4]): > 100 µM
CC50 [5]: > 1000 µM
CC50 ([6]; as in Example 17 (Table 7)): > 1000 µM
CC50 at 5 days [7]: > 1000 µM

hexadecyloxypropyl-adefovir [HDP-ADV]
pEC50 ([1]; Human CMV replication in MRC-5 human lung fibroblasts, DNA reduction (Table 2), read-out: EC50): 7.00
pEC50 ([1]; preliminary experiments (Table 1), MRC-5 cells, 5 days, read-out: HCMV EC50): 8.00
CC50 (HT4-6C cells): 6.5 µM
CC50 ([6]; 5 days (Table 2)): 6.5 µM

CCCCCCCCCCCCCCCCCCOCCOP(=O)(O)COC(CO)Cn1ccc(N)nc1=O (stereo not drawn) [1-O-octadecylethanediol-2-CDV]
Selectivity Index (HSV-1): 105,000

CCCCCCCCCCCCCCCCCCOCCCOP1(=O)COC(Cn2ccc(N)nc2=O)CO1 (stereo not drawn) [1-O-octadecylpropanediol-3-cCDV]
Selectivity Index [1]: 1 × 10^6
Selectivity Index (HSV-1): 970

CCCCCCCCCCCCCCCCOCCCOP(=O)(O)C(O)(CCCN)P(=O)(O)O (stereo not drawn) [HDP-alendronate, 1-O-Hexadececylpropanediol-3-alendronate]
effect on dexamethasone-induced increase in % dead cells (Calvarial cells): abolished the dexamethasone-induced increase in % dead cells
effect on dexamethasone-induced apoptosis (percentage of dead cells) (MLO-Y4 osteocytic cells): inhibits dexamethasone-induced apoptosis
bone mass loss (ash weight of the femora) (ovariectomized rats): less bone mass loss than the ovariectomized controls

Cc1cn([C@H]2C[C@H](N=[N+]=[N-])[C@@H](CO)O2)c(=O)[nH]c1=O [AZT, zidovudine]
pEC50 (HIV-1): 8.15

CCCCCCCCCCCCCCCCCCOCCCOP(=O)(O)C(O)(CCCN)P(=O)(O)O (stereo not drawn) [1-O-octadecyloxypropyl alendronate, 1-O-octadecyloxypropyl-alendronate]
fractures (postmenopausal women): fewer fractures
rate of reduction in bone density (postmenopausal women): lesser rate of reduction in bone density than the placebo group

Nc1ccn(C[C@@H](CO)OCP(=O)(O)O)c(=O)n1 [CDV, cidofovir]
CC50 (in vitro [3]): 89.8 µM
CC50 (in vitro [4]): > 100 µM
CC50 [5]: 857 µM
CC50 ([6]; as in Example 17 (Table 7)): > 1000 µM
CC50 at 5 days [7]: > 1000 µM

CCCCCCCCCCCCCCCCCCOCCCOP(=O)(O)CO[C@H](CO)Cn1ccc(N)nc1=O [1-O-octadecylpropanediol-3-CDV]
Selectivity Index [1]: 1 × 10^6
